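Results reflect a 48-hour exposure of cells in 96-well plates to compound at five concentrations. GI50 marks 50% less growth. At the TGI there is no net growth.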
Tests used:
Test in all cases: inhibition of tumour cell growth, NCI panel, 48 h
786-0 renal = test system: 786-0 renal
A498 renal = test system: A498 renal
A549 NSCLC = test system: A549 NSCLC
ACHN renal = test system: ACHN renal
BT-549 breast = test system: BT-549 breast
CAKI-1 renal = test system: CAKI-1 renal
CCRF-CEM leukemia = test system: CCRF-CEM leukemia
COLO 205 colon = test system: COLO 205 colon
DU-145 prostate = test system: DU-145 prostate
EKVX NSCLC = test system: EKVX NSCLC
HCC-2998 colon = test system: HCC-2998 colon
HCT-116 colon = test system: HCT-116 colon
HCT-15 colon = test system: HCT-15 colon
HL-60(TB) leukemia = test system: HL-60(TB) leukemia
HOP-62 NSCLC = test system: HOP-62 NSCLC
HOP-92 NSCLC = test system: HOP-92 NSCLC
HS 578T breast = test system: HS 578T breast
HT29 colon = test system: HT29 colon
IGROV1 ovarian = test system: IGROV1 ovarian
K-562 leukemia = test system: K-562 leukemia
KM12 colon = test system: KM12 colon
LOX IMVI melanoma = test system: LOX IMVI melanoma
M14 melanoma = test system: M14 melanoma
MALME-3M melanoma = test system: MALME-3M melanoma
MCF7 breast = test system: MCF7 breast
MDA-MB-231 breast = test system: MDA-MB-231 breast
MDA-MB-435 = test system: MDA-MB-435
MOLT-4 leukemia = test system: MOLT-4 leukemia
NCI-H226 lung = test system: NCI-H226 lung
NCI-H23 lung = test system: NCI-H23 lung
NCI-H460 lung = test system: NCI-H460 lung
NCI-H522 lung = test system: NCI-H522 lung
NCI/ADR-RES ovarian = test system: NCI/ADR-RES ovarian
OVCAR-3 ovarian = test system: OVCAR-3 ovarian
OVCAR-4 ovarian = test system: OVCAR-4 ovarian
OVCAR-5 ovarian = test system: OVCAR-5 ovarian
OVCAR-8 ovarian = test system: OVCAR-8 ovarian
PC-3 prostate = test system: PC-3 prostate
RPMI-8226 leukemia = test system: RPMI-8226 leukemia
RXF 393 renal = test system: RXF 393 renal
SF-268 CNS = test system: SF-268 CNS
SF-295 CNS = test system: SF-295 CNS
SF-539 CNS = test system: SF-539 CNS
SK-MEL-2 melanoma = test system: SK-MEL-2 melanoma
SK-MEL-28 melanoma = test system: SK-MEL-28 melanoma
SK-MEL-5 melanoma = test system: SK-MEL-5 melanoma
SK-OV-3 ovarian = test system: SK-OV-3 ovarian
SN12C renal = test system: SN12C renal
SNB-19 CNS = test system: SNB-19 CNS
SNB-75 CNS = test system: SNB-75 CNS
SR leukemia = test system: SR leukemia
SW-620 colon = test system: SW-620 colon
T-47D breast = test system: T-47D breast
TK-10 renal = test system: TK-10 renal
U251 CNS = test system: U251 CNS
UACC-257 melanoma = test system: UACC-257 melanoma
UACC-62 melanoma = test system: UACC-62 melanoma
UO-31 renal = test system: UO-31 renal

COc1cc(Nc2ncc3c(C)nc(-c4cccc(C(F)(F)F)c4)n3n2)cc(OC)c1OC
GI50 (786-0 renal): 3.96 µM
TGI (786-0 renal): 7.92 µM
GI50 (A498 renal): 0.305 µM
TGI (A498 renal): 5.86 µM
GI50 (A549 NSCLC): 3.51 µM
TGI (A549 NSCLC): 6.98 µM
GI50 (ACHN renal): 1.95 µM
TGI (ACHN renal): 5.78 µM
GI50 (BT-549 breast): 4.05 µM
TGI (BT-549 breast): 8.03 µM
GI50 (CAKI-1 renal): 0.747 µM
TGI (CAKI-1 renal): 13.6 µM
GI50 (CCRF-CEM leukemia): 5.87 µM
TGI (CCRF-CEM leukemia): 19 µM
GI50 (COLO 205 colon): 4.07 µM
TGI (COLO 205 colon): 7.49 µM
GI50 (DU-145 prostate): 3.13 µM
TGI (DU-145 prostate): 6.26 µM
GI50 (EKVX NSCLC): 4.19 µM
TGI (EKVX NSCLC): 8 µM
GI50 (HCC-2998 colon): 4.01 µM
TGI (HCC-2998 colon): 7.86 µM
GI50 (HCT-116 colon): 3.49 µM
TGI (HCT-116 colon): 6.73 µM
GI50 (HCT-15 colon): 3.78 µM
TGI (HCT-15 colon): 8.2 µM
GI50 (HL-60(TB) leukemia): 6.91 µM
TGI (HL-60(TB) leukemia): 16 µM
GI50 (HOP-62 NSCLC): 3.84 µM
TGI (HOP-62 NSCLC): 7.51 µM
GI50 (HOP-92 NSCLC): 1.74 µM
TGI (HOP-92 NSCLC): 5.99 µM
GI50 (HS 578T breast): 3.77 µM
TGI (HS 578T breast): 13.6 µM
GI50 (HT29 colon): 4.15 µM
TGI (HT29 colon): 7.69 µM
GI50 (IGROV1 ovarian): 3.49 µM
TGI (IGROV1 ovarian): 11.2 µM
GI50 (K-562 leukemia): 6.62 µM
TGI (K-562 leukemia): 19.6 µM
GI50 (KM12 colon): 3.05 µM
TGI (KM12 colon): 6.23 µM
GI50 (LOX IMVI melanoma): 3.74 µM
TGI (LOX IMVI melanoma): 7.58 µM
GI50 (M14 melanoma): 4.03 µM
TGI (M14 melanoma): 8.07 µM
GI50 (MALME-3M melanoma): 4.39 µM
TGI (MALME-3M melanoma): 9.17 µM
GI50 (MCF7 breast): 4.14 µM
TGI (MCF7 breast): 7.82 µM
GI50 (MDA-MB-231 breast): 3.33 µM
TGI (MDA-MB-231 breast): 6.97 µM
GI50 (MDA-MB-435): 2.58 µM
TGI (MDA-MB-435): 5.78 µM
GI50 (MOLT-4 leukemia): 6.85 µM
TGI (MOLT-4 leukemia): 15.4 µM
GI50 (NCI-H226 lung): 4.14 µM
TGI (NCI-H226 lung): 7.72 µM
GI50 (NCI-H23 lung): 4.07 µM
TGI (NCI-H23 lung): 8.61 µM
GI50 (NCI-H460 lung): 4.46 µM
TGI (NCI-H460 lung): 13.6 µM
GI50 (NCI-H522 lung): 4.18 µM
TGI (NCI-H522 lung): 8.12 µM
GI50 (NCI/ADR-RES ovarian): 4.23 µM
TGI (NCI/ADR-RES ovarian): 11 µM
GI50 (OVCAR-3 ovarian): 4.28 µM
TGI (OVCAR-3 ovarian): 7.72 µM
GI50 (OVCAR-4 ovarian): 4.48 µM
TGI (OVCAR-4 ovarian): 9.81 µM
GI50 (OVCAR-5 ovarian): 3.65 µM
TGI (OVCAR-5 ovarian): 7.5 µM
GI50 (OVCAR-8 ovarian): 4.09 µM
TGI (OVCAR-8 ovarian): 8.91 µM
GI50 (PC-3 prostate): 4.32 µM
TGI (PC-3 prostate): 10.6 µM
GI50 (RPMI-8226 leukemia): 6.45 µM
TGI (RPMI-8226 leukemia): 19.7 µM
GI50 (RXF 393 renal): 1.81 µM
TGI (RXF 393 renal): 5.42 µM
GI50 (SF-268 CNS): 4.19 µM
TGI (SF-268 CNS): 8.1 µM
GI50 (SF-295 CNS): 3.86 µM
TGI (SF-295 CNS): 8.15 µM
GI50 (SF-539 CNS): 3.98 µM
TGI (SF-539 CNS): 8.34 µM
GI50 (SK-MEL-2 melanoma): 3.25 µM
TGI (SK-MEL-2 melanoma): 7.28 µM
GI50 (SK-MEL-28 melanoma): 4.44 µM
TGI (SK-MEL-28 melanoma): 8.25 µM
GI50 (SK-MEL-5 melanoma): 3.32 µM
TGI (SK-MEL-5 melanoma): 6.51 µM
GI50 (SK-OV-3 ovarian): 2.24 µM
TGI (SK-OV-3 ovarian): 6.86 µM
GI50 (SN12C renal): 3.54 µM
TGI (SN12C renal): 7.14 µM
GI50 (SNB-19 CNS): 4.64 µM
TGI (SNB-19 CNS): 8.51 µM
GI50 (SNB-75 CNS): 3.09 µM
TGI (SNB-75 CNS): 8.42 µM
GI50 (SR leukemia): 6.36 µM
TGI (SR leukemia): 17.5 µM
GI50 (SW-620 colon): 3.72 µM
TGI (SW-620 colon): 7.62 µM
GI50 (T-47D breast): 2.95 µM
TGI (T-47D breast): 6.58 µM
GI50 (TK-10 renal): 2.98 µM
TGI (TK-10 renal): 6.19 µM
GI50 (U251 CNS): 3.71 µM
TGI (U251 CNS): 7.06 µM
GI50 (UACC-257 melanoma): 3.88 µM
TGI (UACC-257 melanoma): 7.46 µM
GI50 (UACC-62 melanoma): 3.15 µM
TGI (UACC-62 melanoma): 6.34 µM
GI50 (UO-31 renal): 1.82 µM
TGI (UO-31 renal): 6.18 µM
